Legend:
Format in all cases: cell-based
[1] = system: human mast cell line HMC-1 (LPA receptor LPAR5); experiment: FLIPR assay, intracellular Ca2+ release in human mast cell line HMC-1; details: HMC1, LPA-stimulated Ca2+ release, HMC-1 cells, compound added 10 minutes prior to LPA
Source text: (§1) B) Use of the Fluorometric Imaging Plate Reader (FLIPR) Assay for the Determination of Intracellular Ca^2+ Release in Human Mast Cell Line HMC-1 and the Murine Microglia cell line BV-2
(§2) The ability of the compounds of the formula Ito inhibit or bind the LPA receptor LPAR5 can be assessed by determining the intracellular Ca^2+ release in human or animal cells. For the analysis of activating potential of LPA and the inhibitory effects of compounds of the formula I two cell lines were used with high LPAR5 expression, the human mast cell line HMC-1 and the murine microglia cell line BV-2 (FIGS. 1 and 2). For the FLIPR assay using human mast cells in a 96-well-format, HMC-1 suspension cells from flask culture were harvested, resuspended and counted. 14×10^6 HMC-1 cells were transferred into a new 50 ml tube, centrifuged for 3 minutes at 540×g. The resulting cell pellet at the bottom of the tube was resuspended with 15 ml loading buffer (loading buffer contained HBSS buffer (pH 7.4), 0.1% BSA (bovine serum albumin), 2 μM FLUO-4 dye; HBSS buffer (pH 7.4) contained 1×HBSS, 20 mM HEPES, 0.01% Pluronic F-127, 2.5 mM Probenicid).
Cells in loading buffer were incubated for 45-60 minutes at 37° C. After incubation cells were centrifuged for 3 minutes at 540×g and resuspended with 21 ml of HBSS buffer (pH 7.4). Each well of a poly-D-lysine coated 96-well-plate was filled with 150 μl cell solution, an equivalent of 100 000 cells/well. The 96-well-plate was centifuged for 2 minutes at 100×g (without brake) prior a recovery time of 30 minutes at 37° C. After this procedure cells were stimulated with LPA (in HBSS pH 7.4 and 0.1% BSA) to determine the EC50 of LPA in HMC-1 cells. For the determination of the inhibitory effect of compounds of the formula I, test compounds were added to the cells in the 96-well-plate 10 minutes prior the addition of LPA. Results of the assay are expressed as % activation, and are calculated using maximum peak of activation (Amax). The IC50 data of the above described FLIPR assay using human mast cell line HMC-1 for exemplary compounds of the present invention are shown in Table 2. Adherent BV-2 cells were seeded onto poly-D-lysine coated 96-well-plates (100000 cells/well) the day before performing the FLIPR assay. The density of the cells in the 96-well-plate at the day of the FLIPR assay should be 90%. After aspiration of the culture media, BV-2 cells were incubated for 30 minutes at 37° C. with loading buffer and recovered in 150 μl HBSS buffer for 30 minutes at 37° C. After this procedure cells were stimulated with LPA (in HBSS pH 7.4 and 0.1% BSA) to determine the EC50 of LPA in BV-2 cells. For the determination of the inhibitory effect of compounds of the formula I, test compounds were added to the cells in the 96-well-plate 10 minutes prior the addition of LPA. The IC50 data of the above described FLIPR assay using the murine microglia cell line BV-2 for exemplary compounds of the present invention are shown in Table 3.

[2] = system: washed human blood platelets (platelet LPA receptor LPAR5); experiment: Aggregation assay for washed human blood platelets (LPA-induced); details: reduction of maximal LPA-induced aggregation, 5 min preincubation at 37° C.
Experimental: A) Aggregation Assay for Washed Human Blood Platelets (Thrombocytes)
Whole blood was collected from healthy volunteers using 3×20 ml syringes containing each 1/10 volume of buffered citrate. The anticoagulated whole blood was transferred into 50 ml polypropylene conical tubes (30 ml per tube). The tubes were centrifuged for 10 minutes at 150×g at room temperature without using the centrifuge brake. This procedure results in a lower phase of cellular components and a supernatant (upper phase) of platelet rich plasma (PRP). The PRP phase was collected from each tube and pooled for each donor. To avoid carry over of cellular components following first centrifugation, approximately 5 ml of PRP was left in the tube. The platelet concentration was determined using a ABX Micros 60 counter. The PRP phase was transferred to a new 50 ml tube. After 10 minutes standing at room temperature, 1 μl PGI2 (1 mM in Tris-HCl/pH 8.8) and 180 μl ACD/A were added per ml PRP. The PRP was then transferred to new 10 ml tube and centrifuged for 10 minutes at 500×g. After centrifugation a cellular pellet is visible at the bottom of the tube. The supernatant was carefully discarded and the cellular pellet, consisting of human blood platelets was then dissolved in 10 ml buffer T (buffer T composition: 145 mM NaCl, 5 mM KCl, 0.1 mM MgCl2×6 H2O, 15 mM HEPES, 5.5 mM glucose, pH 7.4). Platelet concentration in this solution was determined and buffer T was added to obtain a final concentration of 3.5×10^5 platelets per ml.
After 10 minutes at room temperature, 1 μl PGI2 per ml platelet solution was added and distributed into new 10 ml tubes. After a centrifugation step, 10 minutes at 500×g, supernatant was discarded and the platelets were resuspended in buffer T to a final concentration of 3.5×10^5 platelets per ml buffer T. Before use, platelet-containing buffer equilibrated for 30 minutes at room temperature. The human platelet aggregation assay was performed in single use cuvettes using the Platelet Aggregation Profiler® (PAP-4 or -8E, BIO/DATA Corporation). For a single experiment, 320 μl of platelet solution were transferred into an assay cuvette, 20 μl of calcium citrate solution (10 mM in H2O) and 20 μl of fibrinogen solution (20 mg/ml H2O) were added. The aggregation assay was performed in the assay cuvette at 37° C. and with 1.200 rpm stirring. To determine the EC50, eight assay cuvettes were loaded as described above with different concentrations of LPA. Aggregation was measured over 6 minutes at 37° C. with 1200 rpm (revolutions per minute) stirring. Results of the assay are expressed as % activation, and are calculated using maximum aggregation (Tmax) or area under curve (AUC) of the absorbance over 6 minutes. The inhibitory effect (IC50) of the test compounds was determined as the reduction of the maximal aggregation. Test compound was added prior starting the experiment with an incubation time of the test compound of 5 minutes at 37° C. with 1200 rpm stirring. The IC50 data of the above described platelet aggregation assay using human washed platelets for exemplary compounds of the present invention are shown in Table 1.

[3] = system: murine microglia cell line BV-2 (LPA receptor LPAR5); experiment: FLIPR assay, intracellular Ca2+ release in murine microglia cell line BV-2; details: Mus musculus; LPA-stimulated Ca2+ release, BV-2 cells, compound added 10 minutes prior to LPA
Source text: as §1, §2
Cells in loading buffer were incubated for 45-60 minutes at 37° C. […] Results of the assay are expressed as % activation, and are calculated using maximum peak of activation (Amax). […]

Q: How did the IC50 [1] turn out when Cc1c(COC(C)(C)C(=O)O)nn(-c2ccc(Cl)cc2Cl)c1-c1ccc(C(F)(F)F)cc1 [Example 4, 2-[1-(2,4-Dichloro-phenyl)-4-methyl-5-(4-trifluoromethyl-phenyl)-1H-pyrazol-3-ylmethoxy]-2-methyl-propionic acid] was run?
A: 6.6 µM

Q: For Cc1c(COC2(C(=O)O)CCCC2)nn(-c2ccc(Cl)cc2Cl)c1-c1ccc(Cl)cc1 [Example 3, 1-[5-(4-Chloro-phenyl)-1-(2,4-dichloro-phenyl)-4-methyl-1H-pyrazol-3-ylmethoxy]-cyclopentanecarboxylic acid], which IC50 [1] is on record?
A: 8.8 µM

Q: How did the IC50 [2] turn out when Cc1c(COC(C)(C)C(=O)NCc2ccc(C(=O)O)cc2)nn(-c2ccc(Cl)cc2Cl)c1-c1ccc(Cl)cc1 [Example 9, 4-({2-[5-(4-Chloro-phenyl)-1-(2,4-dichloro-phenyl)-4-methyl-1H-pyrazol-3-ylmethoxy]-2-methyl-propionylamino}-methyl)-benzoic acid] was run?
A: 2.9 µM

Q: And the IC50 [1]?
A: 1.3 µM

Q: What about the IC50 [3] of the same compound?
A: 1.8 µM

Q: Cc1c(COC(C)(C)C(=O)NCc2ccc(C(=O)O)cc2)nn(-c2ccc(Cl)cc2)c1-c1ccc(C(F)(F)F)cc1 [Example 14, 4-({2-[1-(4-Chloro-phenyl)-4-methyl-5-(4-trifluoromethyl-phenyl)-1H-pyrazol-3-ylmethoxy]-2-methyl-propionylamino}-methyl)-benzoic acid] was tested. Which IC50 [1] did it give?
A: 3.4 µM

Q: With Cc1c(COC(C)C(=O)Nc2ccc(C(=O)O)cc2)nn(-c2ccc(Cl)cc2)c1-c1ccc(C(F)(F)F)cc1 (stereo not shown) [Example 18, 4-{2-[1-(4-Chloro-phenyl)-4-methyl-5-(4-trifluoromethyl-phenyl)-1H-pyrazol-3-ylmethoxy]-propionylamino}-benzoic acid] as the compound, how does the IC50 [1] read?
A: 3.8 µM

Q: With Cc1c(COC(C(=O)Nc2ccc(C(=O)O)cc2)C(C)C)nn(-c2ccc(Cl)cc2Cl)c1-c1ccc(Cl)cc1 (stereo not shown) [Example 17, 4-{2-[5-(4-Chloro-phenyl)-1-(2,4-dichloro-phenyl)-4-methyl-1H-pyrazol-3-ylmethoxy]-3-methyl-butyrylamino}-benzoic acid] as the compound, how does the IC50 [2] read?
A: 15.9 µM

Q: What about the IC50 [1] of the same compound?
A: 4.2 µM

Q: For Cc1c(COC(C)C(=O)NCc2ccc(C(=O)O)cc2)nn(-c2ccc(Cl)cc2Cl)c1-c1ccc(Cl)cc1 (stereo not shown) [Example 15, 4-({2-[5-(4-Chloro-phenyl)-1-(2,4-dichloro-phenyl)-4-methyl-1H-pyrazol-3-ylmethoxy]-propionylamino}-methyl)-benzoic acid], which IC50 [2] is on record?
A: 6.5 µM

Q: And the IC50 [1]?
A: 8.8 µM

Q: How did the IC50 [1] turn out when Cc1c(COC(C)(C)C(=O)NCc2ccc(C(=O)O)cc2)nn(-c2ccccc2Cl)c1-c1ccc(C(F)(F)F)cc1 [Example 13, 4-({2-[1-(2-Chloro-phenyl)-4-methyl-5-(4-trifluoromethyl-phenyl)-1H-pyrazol-3-ylmethoxy]-2-methyl-propionylamino}-methyl)-benzoic acid] was run?
A: 1.3 µM

Q: Cc1c(COC(C)(C)C(=O)O)nn(-c2ccc(Cl)cc2Cl)c1-c1ccc(Cl)cc1 [Example 1, 2-[5-(4-Chloro-phenyl)-1-(2,4-dichloro-phenyl)-4-methyl-1H-pyrazol-3-ylmethoxy]-2-methyl-propionic acid] was tested. Which IC50 [1] did it give?
A: 8.3 µM

Q: For Cc1c(COC(C)C(=O)Nc2ccc(C(=O)O)cc2)nn(-c2ccc(Cl)cc2Cl)c1-c1ccc(C(F)(F)F)cc1 (stereo not shown) [Example 16, 4-{2-[1-(2,4-Dichloro-phenyl)-4-methyl-5-(4-trifluoromethyl-phenyl)-1H-pyrazol-3-ylmethoxy]-propionylamino}-benzoic acid], which IC50 [1] is on record?
A: 4.1 µM

Q: Which IC50 [1] does the source give for Cc1c(COCC(=O)NCc2ccc(C(=O)O)cc2)nn(-c2ccc(Cl)cc2Cl)c1-c1ccc(Cl)cc1 [Example 11, 4-({2-[5-(4-Chloro-phenyl)-1-(2,4-dichloro-phenyl)-4-methyl-1H-pyrazol-3-ylmethoxy]-acetylamino}-methyl)-benzoic acid] here?
A: 8.6 µM

Q: Which results are given for Cc1c(COC(C)C(=O)O)nn(-c2ccc(Cl)cc2Cl)c1-c1ccc(Cl)cc1 (stereo not shown) [Example 8, 2-[5-(4-Chloro-phenyl)-1-(2,4-dichloro-phenyl)-4-methyl-1H-pyrazol-3-ylmethoxy]-propionic acid]?
A: IC50 [2]: 4.1 µM; IC50 [1]: 6.3 µM

Q: For CCC(OCc1nn(-c2ccc(Cl)cc2Cl)c(-c2ccc(Cl)cc2)c1C)C(=O)O (stereo not shown) [Example 7, 2-[5-(4-Chloro-phenyl)-1-(2,4-dichloro-phenyl)-4-methyl-1H-pyrazol-3-ylmethoxy]-butyric acid], which IC50 [2] is on record?
A: 4.7 µM

Q: And the IC50 [1]?
A: 11.4 µM

Q: Which results are given for Cc1c(COC(C)(C)C(=O)NCc2ccc(C(=O)O)cc2)nn(-c2ccc(Cl)cc2Cl)c1-c1ccc(C(F)(F)F)cc1 [Example 10, 4-({2-[1-(2,4-Dichloro-phenyl)-4-methyl-5-(4-trifluoromethyl-phenyl)-1H-pyrazol-3-ylmethoxy]-2-methyl-propionylamino}-methyl)-benzoic acid]?
A: IC50 [1]: 0.03 µM; IC50 [3]: 0.2 µM

Q: With CCC(OCc1nn(-c2ccc(Cl)cc2Cl)c(-c2ccc(Cl)cc2)c1C)C(=O)NCc1ccc(C(=O)O)cc1 (stereo not shown) [Example 12, 4-({2-[5-(4-Chloro-phenyl)-1-(2,4-dichloro-phenyl)-4-methyl-1H-pyrazol-3-ylmethoxy]-butyrylamino}-methyl)-benzoic acid] as the compound, how does the IC50 [2] read?
A: 4.3 µM

Q: And the IC50 [1]?
A: 6.3 µM

Q: How did the IC50 [1] turn out when CC(OCc1cn(-c2ccccc2)nc1-c1ccccc1)C(=O)Nc1ccc(C(=O)O)cc1 (stereo not shown) [Example 22, 4-[2-(1,3-Diphenyl-1H-pyrazol-4-ylmethoxy)-propionylamino]-benzoic acid] was run?
A: 16 µM

Q: For Cc1c(COC(C)C(=O)Nc2ccc(C(=O)O)cc2)nn(-c2ccccc2Cl)c1-c1ccc(C(F)(F)F)cc1 (stereo not shown) [Example 20, 4-{2-[1-(2-Chloro-phenyl)-4-methyl-5-(4-trifluoromethyl-phenyl)-1H-pyrazol-3-ylmethoxy]-propionylamino}-benzoic acid], which IC50 [1] is on record?
A: 5.2 µM

Source: patent US9346762B2, “Pyrazole derivatives and their use as LPAR5 antagonists” (SANOFI, priority 2012, dated 2016)
